The values below come from ChEMBL document CHEMBL5550090, “Synthesis and biological evaluation of 1H-pyrrolo[3,2-g]isoquinolines” (Bioorg Med Chem, 2024).

By IC50 is commonly meant the point on the concentration scale where inhibition reaches its midpoint.

Molecules are shown by their SMILES.

The target in experiment [1] is Dual specificity tyrosine-phosphorylation-regulated kinase 1A (Rattus norvegicus) (UniProt Q63470). Briefly: Inhibition of recombinant rat DYRK1A kinase domain (1 to 499 residues) expressed in bacteria assessed as enzyme residual activity using KKISGRLSPIMTEQ as substrate at 10 uM incubated for 30 mins in presence of ATP by ADP-Glo kinase assay. For orientation: ADP-Glo turns the ADP formed in a reaction into a luminescent signal.

For experiment [2], the target named is T1, Serine/threonine-protein kinase haspin (Homo sapiens, UniProt Q8TF76).
T1 sequence (Q8TF76 whole entry): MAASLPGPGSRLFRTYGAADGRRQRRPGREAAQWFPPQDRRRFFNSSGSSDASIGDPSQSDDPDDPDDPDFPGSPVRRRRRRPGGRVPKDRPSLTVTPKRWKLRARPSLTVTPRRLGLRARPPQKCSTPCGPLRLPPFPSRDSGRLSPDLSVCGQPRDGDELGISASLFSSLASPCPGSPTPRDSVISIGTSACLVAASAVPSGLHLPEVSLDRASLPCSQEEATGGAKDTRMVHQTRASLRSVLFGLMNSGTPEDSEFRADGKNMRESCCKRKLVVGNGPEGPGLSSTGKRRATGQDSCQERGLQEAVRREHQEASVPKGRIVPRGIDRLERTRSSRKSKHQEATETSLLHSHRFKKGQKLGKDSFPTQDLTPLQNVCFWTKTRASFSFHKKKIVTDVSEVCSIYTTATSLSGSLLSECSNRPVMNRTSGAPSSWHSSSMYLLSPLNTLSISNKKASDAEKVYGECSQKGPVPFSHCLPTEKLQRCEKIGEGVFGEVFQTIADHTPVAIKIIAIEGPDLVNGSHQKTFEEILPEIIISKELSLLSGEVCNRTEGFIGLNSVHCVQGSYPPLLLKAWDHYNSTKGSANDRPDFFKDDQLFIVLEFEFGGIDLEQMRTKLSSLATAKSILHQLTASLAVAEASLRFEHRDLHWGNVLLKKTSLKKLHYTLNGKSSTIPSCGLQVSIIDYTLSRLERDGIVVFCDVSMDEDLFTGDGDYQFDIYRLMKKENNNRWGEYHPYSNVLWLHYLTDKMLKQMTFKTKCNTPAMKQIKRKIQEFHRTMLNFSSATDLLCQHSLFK
Kind of experiment: Inhibition of recombinant human Haspin kinase domain (470 to 798 residues) expressed in bacteria using histone H3 (1 to 21) peptide as substrate incubated for 30 mins in presence of ATP by ADP-Glo kinase assay.

Experiment [3] deals with Dual specificity tyrosine-phosphorylation-regulated kinase 1A (Rattus norvegicus) (UniProt Q63470). Briefly: Inhibition of recombinant rat DYRK1A kinase domain (1 to 499 residues) expressed in bacteria assessed as enzyme residual activity using KKISGRLSPIMTEQ as substrate at 1 uM incubated for 30 mins in presence of ATP by ADP-Glo kinase assay.
In experiment [4] the target is Glycogen synthase kinase-3 beta (Homo sapiens) (UniProt P49841). Briefly: Inhibition of human recombinant GSK-3 beta expressed in baculovirus-infected Sf9 cells assessed as enzyme residual activity using YRRAAVPPSPSLSRHSSPHQSpEDEEE as substrate at 1 uM incubated for 30 mins in presence of ATP by ADP-Glo kinase assay.
Chain of Glycogen synthase kinase-3 beta (Homo sapiens) (P49841 whole entry, looked up): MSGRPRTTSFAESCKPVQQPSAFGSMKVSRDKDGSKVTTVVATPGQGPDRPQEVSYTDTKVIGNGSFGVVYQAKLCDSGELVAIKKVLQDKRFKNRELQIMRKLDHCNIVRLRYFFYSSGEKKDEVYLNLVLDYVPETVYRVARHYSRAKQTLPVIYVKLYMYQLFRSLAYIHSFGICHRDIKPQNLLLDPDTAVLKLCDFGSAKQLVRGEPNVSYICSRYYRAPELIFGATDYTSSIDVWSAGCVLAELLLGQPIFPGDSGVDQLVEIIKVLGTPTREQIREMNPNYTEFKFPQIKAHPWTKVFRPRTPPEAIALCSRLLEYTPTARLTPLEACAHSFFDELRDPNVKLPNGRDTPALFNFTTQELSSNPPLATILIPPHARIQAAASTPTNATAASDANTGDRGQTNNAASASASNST
Experiment [5] shares this target. Briefly: Inhibition of human recombinant GSK-3 beta expressed in baculovirus-infected Sf9 cells assessed as enzyme residual activity using YRRAAVPPSPSLSRHSSPHQSpEDEEE as substrate at 10 uM incubated for 30 mins in presence of ATP by ADP-Glo kinase assay.
In experiment [6] the target is Casein kinase I isoform epsilon (Homo sapiens) (UniProt P49674). Kind of experiment: Inhibition of human recombinant CK1 epsilon expressed in baculovirus-infected Sf9 cells assessed as enzyme residual activity using RRKHAAIGSpAYSITA as substrate at 10 uM incubated for 30 mins in presence of ATP by ADP-Glo kinase assay.
Chain of Casein kinase I isoform epsilon (Homo sapiens) (P49674 whole entry, looked up, canonical isoform): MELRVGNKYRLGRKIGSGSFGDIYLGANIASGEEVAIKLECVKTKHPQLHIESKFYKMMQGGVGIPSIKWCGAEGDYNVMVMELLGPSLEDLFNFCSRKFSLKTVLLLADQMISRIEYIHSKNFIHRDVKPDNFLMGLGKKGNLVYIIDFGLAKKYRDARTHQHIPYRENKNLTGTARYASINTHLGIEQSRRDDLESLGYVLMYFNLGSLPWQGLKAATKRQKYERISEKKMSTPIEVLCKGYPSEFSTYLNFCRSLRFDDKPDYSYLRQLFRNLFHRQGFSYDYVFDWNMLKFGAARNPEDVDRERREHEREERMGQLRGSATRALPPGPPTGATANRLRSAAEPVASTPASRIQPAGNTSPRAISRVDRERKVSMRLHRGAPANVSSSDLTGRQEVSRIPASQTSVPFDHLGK
For experiment [7], the target named is Dual specificity protein kinase CLK1 (Mus musculus) (UniProt P22518). Kind of experiment: Inhibition of recombinant mouse CLK1 expressed in bacteria assessed as enzyme residual activity using GRSRSRSRSRSR as substrate at 10 uM incubated for 30 mins in presence of ATP by ADP-Glo kinase assay.
Chain of Dual specificity protein kinase CLK1 (Mus musculus) (P22518 whole entry, looked up): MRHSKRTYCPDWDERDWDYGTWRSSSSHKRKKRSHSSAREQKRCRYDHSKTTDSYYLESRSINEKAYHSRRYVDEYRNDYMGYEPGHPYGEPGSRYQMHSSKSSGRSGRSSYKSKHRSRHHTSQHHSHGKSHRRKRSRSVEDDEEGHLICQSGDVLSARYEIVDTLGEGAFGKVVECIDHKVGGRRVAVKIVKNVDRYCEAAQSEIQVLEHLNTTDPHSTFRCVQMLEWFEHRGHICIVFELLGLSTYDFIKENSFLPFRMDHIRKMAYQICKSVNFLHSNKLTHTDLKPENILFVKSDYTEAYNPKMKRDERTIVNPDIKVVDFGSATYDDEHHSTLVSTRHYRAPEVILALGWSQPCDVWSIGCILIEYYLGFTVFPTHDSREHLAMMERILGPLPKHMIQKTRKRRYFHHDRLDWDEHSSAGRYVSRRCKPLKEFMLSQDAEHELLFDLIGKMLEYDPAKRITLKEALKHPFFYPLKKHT
Experiment [8] addresses T2, Cyclin-dependent kinase 5/CDK5 activator 1 (Homo sapiens) (UniProt Q00535+Q15078). Kind of experiment: Inhibition of human recombinant CDK5/p25 expressed in bacteria assessed as enzyme residual activity using histone H1 as substrate at 10 uM incubated for 30 mins in presence of ATP by ADP-Glo kinase assay.
Experiment [9] addresses T3, CDK9/cyclin T1 (Homo sapiens) (UniProt O60563+P50750). Kind of experiment: Inhibition of human recombinant CDK9/cyclin T expressed in baculovirus-infected Sf9 cells assessed as enzyme residual activity using YSPTSPSYSPTSPSYSPTSPSKKKK as substrate at 10 uM incubated for 30 mins in presence of ATP by ADP-Glo kinase assay.
For experiment [10], the target named is Dual specificity protein kinase CLK1 (Mus musculus) (UniProt P22518). Kind of experiment: Inhibition of recombinant mouse CLK1 expressed in bacteria assessed as enzyme residual activity using GRSRSRSRSRSR as substrate at 1 uM incubated for 30 mins in presence of ATP by ADP-Glo kinase assay.
Experiment [11] deals with T4, Serine/threonine-protein kinase pim-1 (Homo sapiens, UniProt P11309). Kind of experiment: Inhibition of human recombinant PIM-1 expressed in bacteria assessed as enzyme residual activity using histone H1 as substrate at 10 uM incubated for 30 mins in presence of ATP by ADP-Glo kinase assay.
T4 sequence (P11309 whole entry, looked up, canonical isoform): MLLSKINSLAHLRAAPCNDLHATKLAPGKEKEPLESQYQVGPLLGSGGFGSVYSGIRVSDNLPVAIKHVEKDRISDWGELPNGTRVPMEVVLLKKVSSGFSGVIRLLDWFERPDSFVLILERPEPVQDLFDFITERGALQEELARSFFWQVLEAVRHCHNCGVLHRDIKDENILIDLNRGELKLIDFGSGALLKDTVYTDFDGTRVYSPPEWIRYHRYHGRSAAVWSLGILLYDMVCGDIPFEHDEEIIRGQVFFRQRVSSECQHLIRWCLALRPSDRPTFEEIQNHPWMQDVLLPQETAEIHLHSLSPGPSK
Experiment [12] concerns the target Casein kinase I isoform epsilon (Homo sapiens) (UniProt P49674). Kind of experiment: Inhibition of human recombinant CK1 epsilon expressed in baculovirus-infected Sf9 cells assessed as enzyme residual activity using RRKHAAIGSpAYSITA as substrate at 1 uM incubated for 30 mins in presence of ATP by ADP-Glo kinase assay.
Experiment [13] concerns the target T4, Serine/threonine-protein kinase pim-1. Kind of experiment: Inhibition of human recombinant PIM-1 expressed in bacteria assessed as enzyme residual activity using histone H1 as substrate at 1 uM incubated for 30 mins in presence of ATP by ADP-Glo kinase assay.
Experiment [14] has as its target T3, CDK9/cyclin T1 (Homo sapiens). Briefly: Inhibition of human recombinant CDK9/cyclin T expressed in baculovirus-infected Sf9 cells assessed as enzyme residual activity using YSPTSPSYSPTSPSYSPTSPSKKKK as substrate at 1 uM incubated for 30 mins in presence of ATP by ADP-Glo kinase assay.
Experiment [15] has as its target T2, Cyclin-dependent kinase 5/CDK5 activator 1 (Homo sapiens). Briefly: Inhibition of human recombinant CDK5/p25 expressed in bacteria assessed as enzyme residual activity using histone H1 as substrate at 1 uM incubated for 30 mins in presence of ATP by ADP-Glo kinase assay.

T2 sequence (Q00535 whole entry): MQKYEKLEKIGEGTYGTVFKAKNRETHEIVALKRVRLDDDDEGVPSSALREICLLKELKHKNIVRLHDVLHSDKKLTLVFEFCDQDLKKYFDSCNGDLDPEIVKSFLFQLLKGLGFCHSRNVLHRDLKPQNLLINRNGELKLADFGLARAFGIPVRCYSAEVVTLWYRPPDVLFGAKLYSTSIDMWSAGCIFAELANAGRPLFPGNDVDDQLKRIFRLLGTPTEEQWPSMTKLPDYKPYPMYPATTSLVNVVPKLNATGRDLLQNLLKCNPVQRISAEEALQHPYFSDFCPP
T2 sequence (Q15078 99-307 partner limits assumed): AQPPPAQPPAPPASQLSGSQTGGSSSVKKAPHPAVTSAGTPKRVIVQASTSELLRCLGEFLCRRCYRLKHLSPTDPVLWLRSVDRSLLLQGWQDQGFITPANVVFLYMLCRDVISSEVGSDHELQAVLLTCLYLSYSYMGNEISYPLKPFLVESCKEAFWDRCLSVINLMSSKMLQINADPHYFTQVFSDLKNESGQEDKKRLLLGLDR

For the compound `OCc1c[nH]c2cc3cnccc3cc12`, the Activity in [1] was found to be 62%; in experiment [3] it was 77%; in experiment [4] it was 84%; in [5] it was 81%; in experiment [6], 98%; in experiment [7], 55%. Besides, the Activity in [8] is 94%; in experiment [9], 55%; in experiment [10], 96%; in [11], 100%; in experiment [12], 100%; in experiment [13], 100%. Also, the Activity in experiment [14] was found to be 81%. For the same compound, the IC50 in experiment [2] is 0.819 µM.

Take `Nc1cc2cc3ccncc3cc2[nH]1`: the Activity was 89% in experiment [15]; 39% in [1]; 100% in experiment [3]; 69% in experiment [4]; 64% in [5]; 52% in experiment [6]. The Activity stood at 20% in experiment [7]; 99% in experiment [8]; 27% in experiment [9]; 73% in experiment [10]; 88% in experiment [11]; 79% in [12]. In addition, the Activity turned out to be 100% in experiment [13] and 74% in [14].

Regarding `Clc1c[nH]c2cc3cnccc3cc12`, the Activity was 100% in [15]; 21% in [1]; 61% in experiment [3]; 92% in experiment [4]; 82% in experiment [5]; 82% in experiment [6]. In addition, the Activity came out at 39% in experiment [7]; 68% in experiment [8]; 25% in experiment [9]; 78% in [10]; 16% in [11]; 100% in experiment [12]. Besides, the Activity in [13] was found to be 63%; in [14], 62%.

As to `Cn1cc(I)c2cc3ccncc3cc21`, the Activity in [15] came to 95%; in [1], 14%; in [3], 46%; in experiment [4], 81%; in [5], 60%; in experiment [6] it was 72%. In addition, the Activity in experiment [7] was found to be 22%; in [8], 22%; in [9] it was 26%; in experiment [10], 61%; in [11], 26%; in experiment [12] it was 100%. The figures for the Activity in experiment [13] and in [14] were 48% and 57%, respectively. For the same compound, the IC50 in experiment [2] was 0.243 µM.

As to `COc1ncc2cc3cnccc3c([N+](=O)[O-])c2n1`, the Activity in experiment [1] was determined as 20%; in experiment [5], 29%; in experiment [6], 53%; in [7] it was 8%; in experiment [8] it was 80%; in [9], 43%. Also, in experiment [11], the Activity amounted to 55%.

For `CCNCc1c[nH]c2cc3cnccc3cc12`, the Activity was determined as 63% in [1]; 80% in experiment [3]; 76% in [4]; 80% in experiment [5]; 100% in experiment [6]; 80% in experiment [7]. In addition, the Activity in experiment [8] amounted to 89%; in experiment [9], 37%; in experiment [10], 94%; in experiment [11], 74%; in [12], 100%; in [13], 76%. Further, the Activity in experiment [14] came to 74%.

On to `c1cc2cc3cc[nH]c3cc2cn1`, for which the Activity in experiment [15] is 100%; in [1] it was 37%; in experiment [3], 99%; in experiment [4], 100%; in experiment [5], 100%; in [6] it was 90%. The Activity came out at 67% in experiment [7]; 98% in [8]; 34% in [9]; 87% in [10]; 45% in experiment [11]; 97% in experiment [12]. For the same compound, the results for the Activity in experiment [13] and in [14] were 90% and 76%, respectively.

As to `CCN(CC)Cc1c[nH]c2cc3cnccc3cc12`, the Activity in experiment [1] was 76%; in experiment [3], 89%; in experiment [4], 79%; in [5] it was 77%; in experiment [6], 100%; in experiment [7], 84%. Further, the Activity in [8] was 100%; in experiment [9] it was 51%; in experiment [10], 89%; in [11], 47%; in experiment [12], 98%; in experiment [13] it was 65%. In addition, the Activity in [14] was found to be 86%.

With `NCc1c[nH]c2cc3cnccc3cc12`, the Activity was 100% in experiment [15]; 62% in [1]; 77% in experiment [3]; 94% in experiment [4]; 80% in experiment [5]; 96% in experiment [6]. For the same compound, the Activity in experiment [7] is 86%; in experiment [8], 94%; in experiment [9], 58%; in [10], 99%; in experiment [11] it was 84%; in experiment [12], 99%. The Activity in [13] is 97%; in experiment [14], 93%.

On to `CN(C)Cc1c[nH]c2cc3cnccc3cc12`, for which the Activity turned out to be 100% in experiment [15]; 67% in experiment [1]; 74% in experiment [3]; 78% in experiment [4]; 66% in experiment [5]; 99% in [6]. Further, the Activity was found to be 62% in experiment [7]; 97% in [8]; 18% in experiment [9]; 91% in experiment [10]; 67% in experiment [11]; 100% in experiment [12]. Besides, the Activity in [13] came out at 66%; in experiment [14], 57%.

Take `CNCc1c[nH]c2cc3cnccc3cc12`: the Activity in [15] was found to be 93%; in experiment [1] it was 92%; in experiment [4], 87%; in experiment [5], 83%; in [6], 98%; in experiment [7], 74%. Moreover, the Activity stood at 88% in [8]; 37% in experiment [9]; 95% in [10]; 90% in experiment [11]; 100% in [12]; 89% in experiment [13]. Moreover, the Activity in [14] was determined as 58%.
